Data set [1] has as its system ICR mice. Briefly: Toxicology study (1-week administration to mice). The format is in vivo. Particulars: oral, 100 or 300 mg/10 ml/kg, one week. The protocol:
The Compound of the present invention (Example No. 9) was administered orally to ICR mice (5 animals per group) as a test compound. […] The test compound was suspended in 0.5% CMC-Na solution and given orally to the animal at a dose of 100 or 300 mg/10 ml/kg in a forced manner.

Data set [2] concerns the target T1, CYP3A4 (Homo sapiens, UniProt P08684).
T1 construct: purchased BD Biosciences, NJ, USA; host or cells: CYP3A4-expressing system microsomes
Briefly: Inhibition of drug-metabolizing enzyme CYP3A4 (CYP3A4/BFC kit). Particulars: CYP3A4-expressing microsomes, BFC substrate, 37° C., 30 minutes; read-out: Inhibition of Drug-Metabolizing Enzymes (IC50; μM) CYP3A4. The format is in vitro ADME. The protocol:
The inhibitory effect on CYP2D6 and CYP3A4 was determined using High Throughput Inhibitor Screening Kits: CYP2D6/AMMC and CYP3A4/BFC (both from BD Biosciences, NJ, USA). Briefly, each of NADPH regenerating systems, cofactors, and test compounds was dispensed into 96-well plates, followed by addition of each of fluorescent substrates, AMMC (CYP2D6) or BFC (CYP3A4). To each well were added CYP2D6-expressing system microsomes or CYP3A4-expressing system microsomes, and the plates were incubated at 37° C. for 30 minutes, and then read for fluorescent signals (CYP2D6: ex=390 nm, em=460 nm; CYP3A4: ex=409 nm, em=538 nm wherein excitation wavelength: ex and emission wavelength: em). Thus, each inhibitory efficacy on enzymes CYP2D6 and CYP3A4 was determined. Roflumilast was used for the reference compound in this assay.

Data set [3] deals with rats. Briefly: Toxicology study (2-weeks administration to rats). The format is in vivo. Particulars: oral, 1, 5, or 25 mg/5 ml/kg. On the procedure: Each compound of the present invention (Example Nos. 9 and 33) was administered orally to rats (6 animals per group) as a test compound. […] The test compound was suspended in 0.5% CMC-Na solution and given orally to the animal at a dose of 1, 5, or 25 mg/5 ml/kg in a forced manner.

The subject of data set [4] is lung neutrophil infiltration. Briefly: Inhibition of lung neutrophil infiltration (LPS inhalation, BALF). The format is in vivo, Hartley guinea-pigs. The following applies: Cavia porcellus, guinea-pigs, oral, 1 hour before LPS inhalation, BALF neutrophils at 24 hours, read-out: Inhibition of Lung Neutrophil Infiltration ED50: mg/kg orally. On the procedure: Hartley guinea-pigs were orally received a suspension of test compounds at a dose of 0.03 to 3 mg/2 mL/kg. One hour later, the animals were received 0.1 mg/mL lipopolylsaccharide (LPS) in a physiological saline via an inhalational route with a nebulizer for 30 minutes. Twenty-four hours after the LPS inhalation, BALF samples were collected, and neutrophils were counted.

The subject of data set [5] is TNF-α production. Briefly: Inhibition of TNF-α production in galactosamine- and LPS-stimulation. The data set is classed as in vivo. The following applies: Mus musculus; C3H/HeN mice, oral, 1 hour before galactosamine/LPS i.v.; serum TNF-α by ELISA 1 hour later; read-out: Inhibition of TNF-α production ED50: mg/kg orally. The protocol: A suspension of each test compound in 0.5% CMC-Na solution was administered orally to C3H/HeN mice at a dose of 0.10 to 10 mg/kg. One hour later, the animals received intravenously galactosamine at a dose of 800 mg/kg and LPS at a dose 5 μg/kg to raise the induction of TNF-α production. One hour later after the galactosamine- and LPS-administration, amounts of TNF-α in serum samples were measured by ELISA, and ED50 was obtained. Roflumilast and SB207499 were used for the reference compounds in this assay.
For orientation: ELISA stands for enzyme-linked immunosorbent assay.

T1 sequence (P08684 whole entry): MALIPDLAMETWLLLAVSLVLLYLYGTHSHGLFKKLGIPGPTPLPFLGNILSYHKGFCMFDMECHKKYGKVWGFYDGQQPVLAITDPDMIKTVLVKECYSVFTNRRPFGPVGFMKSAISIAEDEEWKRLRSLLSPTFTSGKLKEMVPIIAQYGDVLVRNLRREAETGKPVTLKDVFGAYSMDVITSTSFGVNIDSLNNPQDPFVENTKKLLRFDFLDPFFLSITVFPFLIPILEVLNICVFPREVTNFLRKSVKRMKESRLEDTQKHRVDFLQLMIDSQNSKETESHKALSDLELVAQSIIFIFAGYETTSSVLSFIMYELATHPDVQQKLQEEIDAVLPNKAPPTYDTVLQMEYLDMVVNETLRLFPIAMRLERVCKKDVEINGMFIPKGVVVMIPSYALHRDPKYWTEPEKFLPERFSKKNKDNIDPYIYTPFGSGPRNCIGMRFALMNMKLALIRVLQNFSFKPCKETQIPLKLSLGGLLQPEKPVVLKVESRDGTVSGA

In general, IC50 refers to the concentration that gives 50% inhibition. Turning to `O=c1c2c(Cc3ccccc3)n[nH]c2c2cccnc2n1-c1ccccc1` [Example No. 9, 3-benzyl-5-phenyl-1H-pyrazolo[4,3-c][1,8]naphthyridin-4 (5H)-one], the “Abnormality in other parameters” value in data set [1] is listed as “no abnormality was observed”; in data set [3] it was “no clear abnormality was observed”. For the same compound, the figures for the Body weight gain entry in data set [1] and in data set [3] were “No reduction of body weight gains was observed” and “No significant reduction of body weight gains was observed”, respectively. The Mortality entry in data set [1] and in data set [3] was “None of the animals were died” in each case. In addition, the IC50 in data set [2] came out at 8.5 µM. The ED50 in data set [4] was determined as 0.12 mg/kg; in data set [5], 0.22 mg/kg.

Regarding `O=c1c2c(Cc3ccc(F)cc3)n[nH]c2c2cccnc2n1-c1ccccc1` [Example No. 33, 3-(4-fluorobenzyl)-5-phenyl-1H-pyrazolo[4,3-c][1,8]naphthyridin-4 (5H)-one], the IC50 in data set [2] was 6.2 µM. In data set [3], the “Abnormality in other parameters” value is recorded as “no clear abnormality was observed”, the Body weight gain entry is listed as “No significant reduction of body weight gains was observed” and the Mortality entry is on record as “None of the animals were died”. For the same compound, the ED50 in data set [4] amounted to 0.09 mg/kg. Moreover, the ED50 in data set [5] stood at 0.1 mg/kg.

For the origin of these results see patent publication US7608716B2, “Pyrazolonaphthyridine derivative” (Aska Pharmaceutical Co., Ltd., priority 2002, dated 2009).
